Legend:
RAW264.7 macrophages [1] = assay: ROS production (DCFH-DA probe in LPS-stimulated RAW264.7 cells); assay type: cell-based; conditions: Mus musculus, 10 μg/mL, relative to control (LPS only) set to 100%
Procedure: (§1) RAW264.7 macrophages were purchased from the National Collection of Authenticated Cell Cultures (Shanghai, China). The cell culture medium was supplemented with 10% fetal bovine serum and 100 U/mL penicillin and 100 μg/mL streptomycin in DMEM culture medium.
The accumulation of ROS was assessed by the radical probe DCFH-DA. At the beginning, RAW264.7 cells were seeded in 6-well plate at 1×10^6 cells/well for 24 hours followed by a 24 hour exposure to LPS to induce an inflammatory response by the RAW264.7 cells. Subsequently, the cells were exposed to different combinations of test ingredients. For the control, the cells were stimulated with LPS for 24 hours, followed by 24 hour with medium only. All experiments were performed in triplicate. […] After incubation at 37 °C for 20 minutes in the dark, the cells were washed and lysed to release intracellular DCF and the fluorescence intensity was detected at 488 nm excitation and 525 nm emission using a microplate spectrofluorometer. The higher the measured value, the higher the level of ROS.
A combination of two compounds was considered as having synergy if both values, as calculated according to formulas 1a and 1b below, were higher than 1. […] If a combination of three compounds were to be evaluated, a similar logic is applied, but the assessed concentration in the combination is divided by 3 and three comparisons are made. […]

RAW264.7 macrophages [2] = assay: Macrophage proliferation (CCK-8 viability of LPS-stimulated RAW264.7 cells); assay type: cell-based
Procedure: as §1
The viability of RAW264.7 cells was measured by Cell Counting Kit (CCK-8). Briefly, RAW264.7 cells were plated into 96-well plates at a density of 5×10^4 cells/well and incubated at 37 °C, 5% CO2 for 24 hours. Next the cells were exposed to 1 μg/mL lipopolysaccharides (LPS) for 24 hours to induce an inflammatory response by the RAW264.7 cells. Subsequently, the cells were exposed to different combinations of test ingredients for 24 hours. For the control, the cells were stimulated with LPS for 24 hours, followed by 24 hours with medium only. […] The absorbance was recorded on an automatic microplate reader with an […] of 450 nm. The higher the measured value, the higher the number of viable cells.
The macrophage proliferation is expressed as a percentage compared to the control (LPS only) which was set to 100%. […]
For this evaluation, the concentration at which each test ingredient provided an equivalent effect on macrophage proliferation was determined.
A combination of two compounds was considered as having synergy if both values, as calculated according to formulas 1a and 1b below, were higher than 1. […]

SMILES: O=C(O)c1cc(C(=O)O)c2c(n1)C(=O)C(=O)c1cc(C(=O)O)[nH]c1-2 [PQQ, Pyrroloquinoline quinone]
- activity at 10 µg/mL (RAW264.7 macrophages [1]): 62.8 ± 5.3%
- activity at 10 µg/mL (RAW264.7 macrophages [2]; Mus musculus, RAW264.7, 24 h, Example 2, 10 μg/mL, relative to control (LPS only) set to 100%): 142 ± 14.1%
- Concentration that provided an equivalent effect on macrophage proliferation (RAW264.7 macrophages [2]; Table 4, LPS-stimulated RAW264.7 cells): 10 µg/mL

From patent publication US20260345585A1, “DIETARY SUPPLEMENT COMPRISING A PREBIOTIC AND ANTIOXIDANT” (N.V. Nutricia, priority 2023, published 2026)
